# US9107879B1, “Methods of increasing the cytotoxicity of chemotherapeutic agents with multisubstrate inhibitors of histone, protein-lys, polyamine acetylation, and polyamine metabolism” (Vanderbilt University, priority 2010, dated 2015)
# Test system: histone H3 lysine 9 acetylation in H358 cells
# Assay: Western analysis of histone H3 lysine 9 acetylation/methylation
# Type: cell-based
# Settings: for suppression of histone H3K9 acetylation: 50 μM, 12 hours post start of treatment
# Experimental: (A) Structures of 1a, and the acetylated side chain of a lysine residue within the polypeptide chain of a protein targeted by the acetylating enzyme (R1 and R2 are the main chain elements on both sides of the lysyl residue). (B) [^3H]-thymidine incorporation into DNA of H358 cells pulsed for 6 hrs at three different time points after the addition of increasing concentrations of 1a, i.e., at 6-12 hrs (12 hr curve), at 18-24 hours (24 hr curve), or at 42-48 hrs (48 hr curve). Incorporation is represented as a percentage relative to control (untreated) cells. (C) Cell cycle analysis of propidium iodide-stained cells harvested at various times after addition of 50 μM 1a. % of cells in G1, S, and G2 represents the average of two independent profiles. (D) Western analysis of histone H3 lysine 9 acetylation, histone H3 lysine 56 acetylation, histone H3 lysine 9 methylation, and total histone H3, before “c” or at the indicated times after addition of 50 μM 1a. Each lane represents 60 μg cellular protein.
# Each lane represents 175 μg cell lysate protein.
# One 6 cm culture dish of H358 cells per treatment was used. Cells were treated with 50 μM spm-2, spm-3, or spd-3a for 12 hours. Histones were extracted from cells in 0.2M H2SO4 (as described in Furuta, T., et al (2003) J. Biol. Chem. 278: 20303-20312), followed by SDS-PAGE and Western blotting. Blots were probed with anti-acetyl histone H3-lysine 9 (Upstate Biotechnology, Inc.)
# Cells were lysed by adding 1 mL of 0.2 M H2SO4. Histones were recovered as described in reference. SDS-PAGE/Western analysis was carried out as previously described using rabbit monoclonal antibody to total histone H3, rabbit polyclonal anti-trimethyl histone H3 (lysine 9), and anti-acetyl histone H3 (lysine 9). All antibodies were purchased from Upstate Biotechnology Inc. (Lake Placid, N.Y.).
# In FIG. 2D, we carried out an immunoblot analysis of total histone H3, histone H3 acetylated on lysine 9 (H3-K9Ac), histone H3 acetylated on lysine 56 (H3-K56Ac) and histone H3 methylated on lysine 9 (H3-MeK9) in H358 cells, before treatment, and after 1, 12, 18, and 24 hours of treatment with 50 μM 1a. […] Acetylation levels are restored by 24 hours.
# One 10-cm plate of H358 lung cancer cells (about 2×10^6 cells), grown in DMEM+10% Fetal bovine serum as described in reference, were treated for 24 hours with 50 μM1a inhibitor. Cells lysates were prepared as we have previously described (Lee C, et al., 2005, Cancer Res 65:9834-9842). Treated cells and untreated (control) cells were harvested by lysing in buffer containing 10 mM Hepes pH 7.5, 100 mM NaCl, 300 mM sucrose, 3 mM MgCl2, 1 mM EDTA, 1 mM DTT, 0.5% Triton X-100, 1 mM PMSF, protease inhibitor pellet (Roche) and analyzed on 10% SDS-PAGE gels, followed by Western immunoblot analysis of total histone H3, methylated histone H3 (methylated on lysine 9), and acetylated histone H3 (acetylated on lysine 9). […] Histone H3 methylation was not affected.
SMILES,effect on histone H3 lysine 9 methylation (50 μM 1a),"histone H3 lysine 9 acetyl groups lost (50 μM 1a, within 1 hour)","histone H3 lysine 9 acetyl groups lost (50 μM 1a, within 12 hours) [%]","histone H3 K9 acetyl groups lost (Example 1: 50 μM 1a, 24 hours, cell lysate)",suppression of histone H3K9 acetylation,suppression of histone H3K9 acetylation (listed as spd-3a)
"CC(C)(COP(=O)(O)OP(=O)(O)OC[C@H]1O[C@@H](n2cnc3c(N)ncnc32)[C@H](O)[C@@H]1OP(=O)(O)O)[C@@H](O)C(=O)NCCC(=O)NCCSCC(=O)NCCCNCCCCN [1a, spermidine[N1]-CoA]",no effect,over 50%,~98,over 80%,,
CC(=O)NCCSCC(=O)NCCCNCCCCN [3a],,,,,nearly complete ablation of histone H3K9 acetylation,suppress histone acetylation
CC(=O)NCCSCC(=O)NCCCNCCCCNCCCN [spm-3],,,,,suppress histone acetylation,
